This note sets out measurements from patent US4889858A, “Dibenz[b,e]oxepin derivatives and pharmaceutical composition containing the same” (Dainippon Pharmaceutical Co., Ltd., priority 1986, dated 1989).

In general, minimal effective dose refers to the lowest level tested that produced the effect sought. In general, IC50 refers to the concentration that gives 50% inhibition.

A short description of series [1]: Prolonging effect of the persistent time of gasping movements in complete ischemia (decapitation). To be noted: for minimal effective dose: Mus musculus, po, 2 hours after administration, mice; for activity in prolonging gasping movements, in words: p.o., compared with flunarizine hydrochloride / compounds of the invention. Type of series: in vivo, mice (ddY male). The protocol: Test was conducted in accordance with the procedure by Wauquier et al. [Japan J. Pharmacol., 38, 1 (1985)], employing five ddY male mice weighing 20-24 g in each group. Test compounds were suspended in 0.5% tragacanth solution and then a fixed amount of the suspension was orally administered to mice in an amount of 0.1 ml/10 g body weight, while the same amount of 0.5% tragacanth solution was orally administered to control group. Two hours after the administration of the test compounds, the necks of mice were cut with scissors for decapitation. The persistent of gasping movements of isolated heads was measured and minimal effective dose was determined by statistically comparing with the data in control group.

The nature of series [2]: Anti-convulsant activity (Swinyard). Type of series: in vivo, mice (ddY male). Also on record: key: 9: Anticonvulsant activity was observed in all three mice.; 1: No anticonvulsant activity was observed in all three mice. To be noted: 100 mg/kg p.o.; 2 hours after administration; three mice. The protocol:
Three ddY male mice weighing 20-24 g were employed in each group. Test compounds suspended in a 0.5% tragacanth solution were orally administered to mice at a dose of 100mg/kg in an amount of 0.1 ml/10 g body weight. The same amount of 0.5% tragacanth solution was orally administered to control group. Two hours after the administration of the test compounds, the anti-convulsant activity was measured in accordance with the procedure by Swinyard (Mercier, J., Ed., "Anticonvulsant Drugs", P. 47-65, Pargamon Press, New York, 1973).

The test system of series [3] is lipid peroxidation of brain mitochondria. The series is described as follows: Inhibitory effect on lipid peroxidation of brain mitochondria (thiobarbituric acid method). In kind it is biochemical. To be noted: rat brain mitochondria; 37° C., 30 minutes; Fe++ 25 μM, ascorbic acid 50 μM. The method, then: This test was conducted in accordance with the procedures by Kubo et al. [Arch. int. Pharmacodyn., 272, 283 (1984)]. Brain mitochondria of rat were incubated in 25 mM Tris-HCl buffer solution at 37° C. for 30 minutes in the presence of Fe^++ ion (25 μM) and ascorbic acid (50 μM), and the produced peroxidized lipid was measured by the thiobarbituric acid method.

Series [4] is described as follows: Prolonging effect on the time to death by hypoxia (anoxia) in mice. The settings on record: p.o.; compared with flunarizine hydrochloride. Type of series: in vivo, mice (STD-ddY male). The method, then:
Five STD-ddY male mice (weighing 20-24 g) were employed in each group. A fixed amount of test compounds was suspended in 0.5% tragacanth solution and the suspension was orally administered to mice in an amount of 0.1 ml/10 g body weight. Two hours after the administration, each mouse was taken in a 2.5 liter plastic chamber and a mixed gas comprising 4% oxygen and 96% nitrogen was passed through the chamber at a rate of 4 liter/min. There was measured the time till the death (respiratory cessation) of mice. To control group, a 0.5% tragacanth solution without test compound was orally administered.

Series [5] is described as follows: Acute toxicity. In kind it is in vivo, mice (ddY male). The settings on record: 500 mg/kg p.o.; seven days observation; five mice. The protocol:
Five ddY male mice weighing 20-24 g were employed in each group. The compound 1 of the present invention suspended in a 0.5% tragacanth solution was orally administered to mice at a dose of 500 mg/kg in an amount of 0.1 ml/10 g body weight. After the administration, the occurrence of death has been observed for seven days.

Structures can show the parent of a compound that is named as a salt. Bounds are passed on as bounds.

With `COc1cccc(C=CCN2CCN(C3c4ccccc4COc4cc(F)ccc43)CC2)c1` (stereo not shown) [A, 11-? 4-(3,-methoxycinnamyl)-1-piperazinyl-3-fluoro-6-11dihydrodibenz[b,e]oxepin, reference compound], in series [1], the minimal effective dose was over 100 mg/kg and the “activity in prolonging gasping movements, in words” value is reported as “lower activities”. In addition, in series [2], the “Score, anti-convulsant activity” value worked out at 1. This compound had an IC50 in series [3] of over 150 µM.

`Cc1ccc2c(c1)OCc1ccccc1C2N1CCN(C/C=C/c2ccccc2)CC1` (stereo not shown) [B, 11-(4-cinnamyl-1-piperazinyl)-3-methyl-6,11-dihydrodibenz[b,e]oxepin, reference compound]: in series [1], the minimal effective dose was over 100 mg/kg and the “activity in prolonging gasping movements, in words” value is reported as “lower activities”. Moreover, the “Score, anti-convulsant activity” value in series [2] turned out to be 1. This compound had an IC50 in series [3] of over 150 µM.

In series [1], `Fc1ccc2c(c1)OCc1ccccc1C2N1CCN(C/C=C/c2ccccc2)CC1` (stereo not shown) [Compound 1, 11-(4-cinnamyl-1-piperazinyl)-3-fluoro-6,11-dihydrodibenz[b,e]oxepin] had a minimal effective dose of 10 mg/kg. In series [2], the “Score, anti-convulsant activity” value came to 9. Also, the “prolonging effect under hypoxic condition, in words” value in series [4] is on record as “clearly more excellent than that o flunarizine hydrochloride”. Further, the occurrence of death entry in series [5] was “no death”. The compound further came in with a half-maximal inhibitory concentration (IC50) in series [3] of 7.8 µM.

In series [1], `COc1ccc2c(c1)C(N1CCN(C/C=C/c3ccccc3)CC1)c1ccccc1CO2` (stereo not shown) [Compound 2, 11-(4-cinnamyl-1-piperazinyl)-2-methoxy-6,11-dihydrodibenz[b,e]oxepin] came in with a minimal effective dose of 3 mg/kg. Also, the “prolonging effect under hypoxic condition, in words” value in series [4] was “clearly more excellent than that o flunarizine hydrochloride”.

In series [1], `Oc1ccc2c(c1)C(N1CCN(C/C=C/c3ccccc3)CC1)c1ccccc1CO2` (stereo not shown) [Compound 3, 11-(4-cinnamyl-1-piperazinyl)-2-hydroxy-6,11-dihydrodibenz[b,e]oxepin] yielded a minimal effective dose of 30 mg/kg. This compound also came in with an IC50 in series [3] of 12.3 µM.

Regarding `Fc1ccc2c(c1)COc1ccc(F)cc1C2N1CCN(C/C=C/c2ccccc2)CC1` (stereo not shown) [Compound 4], in series [1], the minimal effective dose was found to be 30 mg/kg. Further, in series [2], the “Score, anti-convulsant activity” value is on record as 9.

Turning to `Fc1ccc2c(c1)OCc1c(F)cccc1C2N1CCN(C/C=C/c2ccccc2)CC1` (stereo not shown) [Compound 5], the minimal effective dose in series [1] turned out to be 3 mg/kg.

In turn, `Fc1ccc2c(c1)OCc1ccc(F)cc1C2N1CCN(C/C=C/c2ccccc2)CC1` (stereo not shown) [Compound 6] returned a minimal effective dose in series [1] of 10 mg/kg.

In the case of `COc1ccc(OC)c2c1OCc1ccccc1C2N1CCN(C/C=C/c2ccccc2)CC1` (stereo not shown) [Compound 7], the minimal effective dose in series [1] is 30 mg/kg.

As to `Fc1ccc2c(c1)C(N1CCN(CC=Cc3cccs3)CC1)c1ccccc1CO2` (stereo not shown) [Compound 8], in series [1], the minimal effective dose came to 30 mg/kg.

In series [1], `Fc1ccc(C(c2ccc(F)cc2)N2CCN(C/C=C/c3ccccc3)CC2)cc1` [Flunarizine hydrochloride, reference compound] showed a minimal effective dose of 30 mg/kg. In addition, the “Score, anti-convulsant activity” value in series [2] is 9.
